Measured values: PubChem BioAssay (NCI)
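Method: 48-hour compound exposure of cells in 96-well plates, five concentrations, linear interpolation of endpoints. Here, GI50 denotes the concentration required for 50% inhibition of growth. Definition used: TGI = concentration required for complete inhibition of growth.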

Legend:
Assay in all cases: NCI anticancer screen, dose series, 48 h
SN12C renal = tested on: SN12C renal
COLO 205 colon = tested on: COLO 205 colon
HT29 colon = tested on: HT29 colon
NCI-H460 lung = tested on: NCI-H460 lung
HOP-62 NSCLC = tested on: HOP-62 NSCLC
MOLT-4 leukemia = tested on: MOLT-4 leukemia
MDA-MB-231 breast = tested on: MDA-MB-231 breast
A549 NSCLC = tested on: A549 NSCLC
SNB-75 CNS = tested on: SNB-75 CNS
ACHN renal = tested on: ACHN renal

SMILES | GI50 (SN12C renal) | TGI (SN12C renal) | GI50 (COLO 205 colon) | TGI (COLO 205 colon) | GI50 (HT29 colon) | TGI (HT29 colon) | GI50 (NCI-H460 lung) | TGI (NCI-H460 lung) | GI50 (HOP-62 NSCLC) | TGI (HOP-62 NSCLC) | GI50 (MOLT-4 leukemia) | TGI (MOLT-4 leukemia) | GI50 (MDA-MB-231 breast) | TGI (MDA-MB-231 breast) | GI50 (A549 NSCLC) | TGI (A549 NSCLC) | GI50 (SNB-75 CNS) | TGI (SNB-75 CNS) | GI50 (ACHN renal) | TGI (ACHN renal)
C=CC1CC12C(=O)C1OC2(C)C2C(=O)c3cc4ccccc4cc3C(=O)C12 (stereo not given) | 27.8 µM | > 100 µM | 44.7 µM | > 100 µM | 27.5 µM | > 100 µM | 26.9 µM | > 100 µM | 75.9 µM | > 100 µM | 15.8 µM | > 100 µM | 16 µM | 46.4 µM | 38.3 µM | > 100 µM | 35.5 µM | > 100 µM | 16.9 µM | 42.1 µM
O=S(=O)(Nc1cc(F)cc(Cl)c1)c1ccc(-c2cnc(C3CC3)o2)cc1 | 3.49 µM | 17.4 µM | 1.59 µM | 11.8 µM | 0.515 µM | 10.6 µM | 0.64 µM | 13.8 µM | 1.56 µM | 17.7 µM | 2.55 µM | > 100 µM | 4.14 µM | 19.3 µM | 1.9 µM | 19.7 µM | 0.344 µM | 3.33 µM | 4.67 µM | 45 µM
CCOc1nc(-c2ccccc2)cc2c(O)c(-c3nnco3)[nH]c(=O)c12 | 3.27 µM | > 100 µM | 5.74 µM | > 100 µM | > 100 µM | > 100 µM | 4.01 µM | > 100 µM | 4.12 µM | > 100 µM | 4.9 µM | > 100 µM | 1.66 µM | > 29.8 µM | 4.55 µM | > 100 µM | 1.92 µM | 8.99 µM | 5.02 µM | > 100 µM
Cn1cc(C2=C(c3ccc4ccccc4c3)C(=O)NC2=O)c2ccccc21 | > 25 µM | > 25 µM | 20.8 µM | > 25 µM | 9.87 µM | > 25 µM | > 25 µM | > 25 µM | > 25 µM | > 25 µM | > 20.1 µM | > 25 µM | > 25 µM | > 25 µM | > 21.8 µM | > 25 µM | 7.47 µM | > 25 µM | > 25 µM | > 25 µM
C=C(C=O)C1CCC2(C(=O)O)CCC3(C)C(CCC4C5(C)CCC(O)C(C)(C)C5CCC43C)C12 (stereo not given) | 4.09 µM | > 89.9 µM | 2.64 µM | 6.18 µM | 2.65 µM | 7.39 µM | 2.05 µM | 4.43 µM | 4.93 µM | 19.7 µM | 3.79 µM | > 100 µM | 4.92 µM | 50.4 µM | 4.58 µM | 28.7 µM | 10.8 µM | 32.6 µM | 1.69 µM | 3.23 µM
